Assay results: PMC3073714 (Chemistry and physics of lipids, 2010)

Target: T1, DNA topoisomerase IB (LdTopIB) (Leishmania donovani, UniProt A0A3Q8IHS4+Q8WQM6)
T1 sequence (A0A3Q8IHS4 1-635): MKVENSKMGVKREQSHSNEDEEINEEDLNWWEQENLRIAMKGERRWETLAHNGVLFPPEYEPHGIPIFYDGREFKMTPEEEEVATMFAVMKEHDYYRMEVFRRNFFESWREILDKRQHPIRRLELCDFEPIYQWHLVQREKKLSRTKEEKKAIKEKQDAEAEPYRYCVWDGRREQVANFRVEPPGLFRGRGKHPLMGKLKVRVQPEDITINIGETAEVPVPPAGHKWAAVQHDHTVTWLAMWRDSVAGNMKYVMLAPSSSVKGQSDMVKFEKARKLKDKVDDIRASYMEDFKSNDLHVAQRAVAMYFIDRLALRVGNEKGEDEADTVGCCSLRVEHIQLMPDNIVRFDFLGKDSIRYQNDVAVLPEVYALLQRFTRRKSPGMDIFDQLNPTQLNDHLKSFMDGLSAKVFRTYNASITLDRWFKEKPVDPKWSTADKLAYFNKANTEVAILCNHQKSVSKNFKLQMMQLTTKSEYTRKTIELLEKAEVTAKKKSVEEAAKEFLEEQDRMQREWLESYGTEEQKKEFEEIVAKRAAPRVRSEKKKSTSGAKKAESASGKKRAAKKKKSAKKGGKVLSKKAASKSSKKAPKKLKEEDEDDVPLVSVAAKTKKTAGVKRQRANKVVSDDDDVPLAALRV
T1 sequence (Q8WQM6 1-262): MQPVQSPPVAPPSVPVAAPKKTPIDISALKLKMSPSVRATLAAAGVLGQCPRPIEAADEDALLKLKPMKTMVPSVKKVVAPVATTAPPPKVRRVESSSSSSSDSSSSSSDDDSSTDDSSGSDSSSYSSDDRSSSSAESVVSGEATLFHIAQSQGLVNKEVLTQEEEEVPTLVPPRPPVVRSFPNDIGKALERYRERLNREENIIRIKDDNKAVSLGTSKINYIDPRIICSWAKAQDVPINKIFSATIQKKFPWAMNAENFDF
Assay: supercoiled plasmid DNA relaxation assay with purified recombinant enzyme
Type: biochemical

IC50: 62.3 ± 0.7 µM
SMILES: CC(C)CCC/C=C\CCCCCCCCCC(=O)O [compound 1, (Z)-16-methyl-11-heptadecenoic acid]
